For 28 compounds, MIC results are on record in patent publication US8524738B2, “Quinolinones and quinoxalinones as antibacterial composition” (Toyama Chemical Co., Ltd., priority 2005, dated 2013).

In brackets after ≈: the same amount, converted by molar mass. Where a name gives a salt, the structure may show the parent alone.

The first assay relates to Staphylococcus aureus (S. aureus FDA209P). The experiment in a line: Sensitivity Test 1: antibacterial activity (MIC) by micro-dilution method. It counts as cell-based. As to conditions: FDA209P. The procedure:
Test compounds were initially dissolved in dimethylsulfoxide. Antibacterial activities (MICs) of the same compounds were determined by the micro-dilution method as recommended by the Japanese Society of Chemotherapy.
Staphylococcus aureus (S. aureus FDA209P) was used as the test organism. The bacterial cells were grown overnight at 35° C. on Mueller-Hinton agar (MHA) plates. The bacterial cells were then suspended in sterile saline and adjusted to the turbidity of a 0.5 McFarland standard. The inoculum was prepared by 10-fold dilution of this suspension. Approximately 0.005 mL aliquots of the inoculum prepared above were subsequently inoculated into Cation-adjusted Mueller-Hinton broth (CAMHB, 100 μL/well) including the test compounds for overnight incubation at 35° C.
A general note: Dilution methods test growth across graded concentrations, often in twofold steps.
For orientation: MIC means the smallest concentration in the dilution series that meets the test's criterion for growth inhibition. Compound `O=c1cnc2ccccc2n1CCN1CCC(NCc2ccc3c(c2)OCCO3)CC1` [Example 28, 1-(2-(4-((2,3-dihydro-1,4-benzodioxin-6-ylmethyl)amino)piperidin-1-yl)ethyl)quinoxalin-2(1H)-one hydrochloride] came in with an MIC of 0.0625 µg/mL.
As for `COc1ccc2c(C)cc(=O)n(CCN3CCC(NCCSc4cccs4)CC3)c2c1` [Example 57, 7-methoxy-4-methyl-1-(2-(4-((2-(2-thienylthio)ethyl)amino)piperidin-1-yl)ethyl)quinolin-2(1H)one hydrochloride], the MIC turned out to be 0.0625 µg/mL.
On the same count and under the same terms, under `Nc1cc(=O)n(CCN2CCC(NCc3ccc4c(c3)OCCO4)CC2)c2ccccc12` [Example 97, 4-amino-1-(2-(4-((2,3-dihydro-1,4-benzodioxin-6-ylmethyl)amino)piperidin-1-yl)ethyl)-quinolin-2(1H)-one hydrochloride] stands 0.125 µg/mL.
For `CCOc1ccc2c(C)cc(=O)n(CCN3CCC(NCc4ccc5c(c4)OCCO5)CC3)c2c1` [Example 104, 1-(2-(4-((2,3-dihydro-1,4-benzodioxin-6-ylmethyl)amino)piperidin-1-yl)ethyl)-7-ethoxy-4-methylquinolin-2(1H)-one hydrochloride], the MIC is 0.0625 µg/mL.
Still for that read-out and setting: the result for `Cc1cc(=O)n(CCN2CCC(NCc3ccc4c(c3)OCCO4)CC2)c2cc(Cl)ccc12` [Example 107, 7-chloro-1-(2-(4-((2,3-dihydro-1,4-benzodioxin-6-ylmethyl)amino)piperidin-1-yl)ethyl)-4-methylquinolin-2(1H)-one hydrochloride] reads 0.0313 µg/mL.
As to `Cc1cc(=O)n(CCN2CCC(NCc3ccc4c(c3)OCCO4)CC2)c2cc(F)ccc12` [Example 109, 1-(2-(4-((2,3-dihydro-1,4-benzodioxin-6-ylmethyl)amino)piperidin-1-yl)ethyl)-7-fluoro-4-methylquinolin-2(1H)-one hydrochloride], the lowest concentration to inhibit growth (MIC) was 0.125 µg/mL.
Regarding `Cc1cc(=O)n(CCN2CCC(NCc3ccc4c(c3)OCCO4)CC2)c2cc(-n3ccnc3)ccc12` [Example 125, 1-(2-(4-((2,3-dihydro-1,4-benzodioxin-6-ylmethyl)amino)piperidin-1-yl)ethyl)-7-(1H-imidazol-1-yl)-4-methylquinolin-2(1H)-one hydrochloride], inhibition of growth (MIC) required 0.0313 µg/mL.
Compound `Cc1cc(=O)n(CCN2CCC(NCc3ccc4c(c3)OCCO4)CC2)c2cc(OC(F)F)ccc12` [Example 127, 7-(difluoromethoxy)-1-(2-(4-((2,3-dihydro-1,4-benzodioxin-6-ylmethyl)amino)piperidin-1-yl)ethyl)-4-methylquinolin-2(1H)-one hydrochloride] came in with an MIC of 0.0625 µg/mL.
On the same count and under the same terms, under `Cc1cc(=O)n(CCN2CCC(NCc3ccc4c(c3)OCCO4)CC2)c2cc(OC3CC3)ccc12` [Example 129, 7-cyclopropoxy-1-(2-(4-((2,3-dihydro-1,4-benzodioxin-6-ylmethyl)amino)piperidin-1-yl)ethyl)-4-methylquinolin-2(1H)-one hydrochloride] stands 0.0625 µg/mL; under `CNC(=O)c1cc(OC)cc2c1ccc(=O)n2CCN1CCC(NCc2ccc3c(c2)OCCO3)CC1` [Example 186, 1-(2-(4-((2,3-dihydro-1,4-benzodioxin-6-ylmethyl)amino)piperidin-1-yl)ethyl)-7-methoxy-N-methyl-2-oxo-1,2-dihydroquinoline-5-carboxamide hydrochloride], 0.25 µg/mL.
As to `COc1cc(CO)c2ccc(=O)n(CCN3CCC(NCc4ccc5c(c4)OCCO5)CC3)c2c1` [Example 189, 1-(2-(4-((2,3-dihydro-1,4-benzodioxin-6-ylmethyl)amino)piperidin-1-yl)ethyl)-5-hydroxymethyl-7-methoxyquinolin-2(1H)-one hydrochloride], the MIC came out at 0.0625 µg/mL.
Compound `COc1cccc2ccc(=O)n(CCN3CCC(NCc4ccc5c(c4)OCCO5)CC3)c12` [Example 244, 1-(2-(4-((2,3-dihydro-1,4-benzodioxin-6-ylmethyl)amino)piperidin-1-yl)ethyl)-8-methoxyquinolin-2(1H)-one hydrochloride] had an MIC of 0.0625 µg/mL.
For `CCc1ccc(CNC2CCN(CCn3c(=O)cc(C(=O)NC)c4ccc(OC)cc43)CC2)cc1` [Example 339, 1-(2-(4-(4-ethylbenzylamino)piperidin-1-yl)ethyl)-7-methoxy-N-methyl-2-oxo-1,2-dihydroquinoline-4-carboxamide hydrochloride], the MIC worked out at 0.0625 µg/mL.
Consider `CNC(=O)c1cc(=O)n(CCN2CCC(NCc3cc4sccc4s3)CC2)c2cc(OC)ccc12` [Example 342, 7-methoxy-N-methyl-2-oxo-1-(2-(4-((thieno[3,2-b]thiophen-2-yl)methylamino)piperidin-1-yl)ethyl)-1,2-dihydroquinoline-4-carboxamide hydrochloride], for which it took 0.0313 µg/mL to inhibit growth (MIC).
The same measure, in the same setting: the result for `CNC(=O)c1cc(=O)n(CCN2CCC(NCc3cc4ccccc4s3)CC2)c2cc(OC)ccc12` [Example 343, 1-(2-(4-((benzo[b]thiophen-2-yl)methylamino)piperidin-1-yl)ethyl)-7-methoxy-N-methyl-2-oxo-1,2-dihydroquinoline-4-carboxamide hydrochloride] reads 0.125 µg/mL.

The assay is the same for the next values; noted with them: S. aureus FDA209P, CAMHB, overnight incubation at 35° C., lowest concentration with virtually no growth, read-out: MIC.
As to `CNC(=O)C1CN(CCn2c(=O)ccc3ccc(OC)cc32)CCC1NCc1ccc2c(c1)OCCO2` (single isomer, unassigned) [Example 176, 4-((2,3-dihydro-1,4-benzodioxin-6-ylmethyl)amino)-1-(2-(7-methoxy-2-oxoquinolin-1(2H)-yl)ethyl)-N-methylpiperidine-3-carboxamide], the minimum inhibitory concentration (MIC) turned out to be 0.0625 µg/mL (≈ 0.123 µM).
In the case of `COc1ccc2c(C)cc(=O)n(CCN3CCC(NCC(=O)Nc4ccccn4)CC3)c2c1` [Example 18, N-(pyridin-2-yl)-N^2-(1-(2-(7-methoxy-4-methyl-2-oxoquinolin-1(2H)-yl)ethyl)piperidin-4-yl)glycinamide], the MIC amounted to 0.25 µg/mL (≈ 0.556 µM).
Turning to `COc1ccc2ccc(=O)n(CCN3CCC(NC(=O)c4ccc5c(c4)OCCO5)CC3)c2c1` [Example 36, N-(1-(2-(7-methoxy-2-oxoquinolin-1(2H)-yl)ethyl)piperidin-4-yl)-2,3-dihydro-1,4-benzodioxin-6-carboxamide], the MIC was found to be 0.125 µg/mL (≈ 0.27 µM).
The same measure, in the same setting: under `COc1ccc2c(C)cc(=O)n(CCN3CCC(NCCCc4ccccc4)CC3)c2c1` [Example 39, 7-methoxy-4-methyl-1-(2-(4-((3-phenylpropyl)amino)piperidin-1-yl)ethyl)quinolin-2(1H)-one] stands 0.0625 µg/mL (≈ 0.144 µM); under `COc1ccc2ccc(=O)n(CCCC3(C(=O)O)CCN(CCSc4cccc(F)c4)CC3)c2c1` [Example 51, 1-(2-((3-fluorophenyl)thio)ethyl)-4-(3-(7-methoxy-2-oxoquinolin-1(2H)-yl)propyl)piperidine-4-carboxylic acid], 0.125 µg/mL (≈ 0.251 µM).
Consider `COc1ccc2c(C)cc(=O)n(CCN3CCN(CCc4ccc5c(c4)OCCO5)C(C(=O)O)C3)c2c1` (stereo not shown) [Example 53, 1-(2-(2,3-dihydro-1,4-benzodioxin-6-yl)ethyl)-4-(2-(7-methoxy-4-methyl-2-oxoquinolin-1(2H)-yl)ethyl)piperazine-2-carboxylic acid], for which the MIC was 1 µg/mL (≈ 1.97 µM).
In the case of `CNC(=O)c1cc(=O)n(CCN2CCC(NCc3cc4c(cn3)OCCO4)CC2)c2cc(OC)ccc12` [Example 66, 1-(2-(4-((2,3-dihydro(1,4)dioxino(2,3-c)pyridin-7-ylmethyl)amino)piperidin-1-yl)ethyl)-7-methoxy-N-methyl-2-oxo-1,2-dihydroquinoline-4-carboxamide], the MIC is 0.25 µg/mL (≈ 0.493 µM).
The same measure, in the same setting: the result for `COc1ccc2c(C(N)=O)cc(=O)n(CCN3CCC(NCc4ccc5c(c4)OCCO5)CC3)c2c1` [Example 70, 1-(2-(4-((2,3-dihydro-1,4-benzodioxin-6-ylmethyl)amino)piperidin-1-yl)ethyl)-7-methoxy-2-oxo-1,2-dihydroquinoline-4-carboxamide] reads 0.25 µg/mL (≈ 0.508 µM); that for `CCNC(=O)c1cc(=O)n(CCN2CCC(NCc3ccc4c(c3)OCCO4)CC2)c2cc(OC)ccc12` [Example 77, 1-(2-(4-((2,3-dihydro-1,4-benzodioxin-6-ylmethyl)amino)piperidin-1-yl)ethyl)N-ethyl-7-methoxy-2-oxo-1,2-dihydroquinoline-4-carboxamide], 0.125 µg/mL (≈ 0.24 µM); that for `COc1ccc2c(C(=O)NC3CC3)cc(=O)n(CCN3CCC(NCc4ccc5c(c4)OCCO5)CC3)c2c1` [Example 79, N-cyclopropyl-1-(2-(4-((2,3-dihydro-1,4-benzodioxin-6-ylmethyl)amino)piperidin-1-yl)ethyl)-7-methoxy-2-oxo-1,2-dihydroquinoline-4-carboxamide], 0.0625 µg/mL (≈ 0.117 µM).
The same measure, in the same setting: the result for `COc1ccc2c(C(=O)Nc3ccccc3)cc(=O)n(CCN3CCC(NCc4ccc5c(c4)OCCO5)CC3)c2c1` [Example 83, 1-(2-(4-((2,3-dihydro-1,4-benzodioxin-6-ylmethyl)amino)piperidin-1-yl)ethyl)-7-methoxy-2-oxo-N-phenyl-1,2-dihydroquinoline-4-carboxamide] reads 0.0625 µg/mL (≈ 0.11 µM); that for `COc1ccc2c(C)cc(=O)n(CCC3(C(N)=O)CCC(NCc4ccc5c(c4)OCCO5)CC3)c2c1` (stereo not shown) [Example 155, 4-((2,3-dihydro-1,4-benzodioxin-6-ylmethyl)amino)-1-(2-(7-methoxy-4-methyl-2-oxoquinolin-1(2H)-yl)ethyl)cyclohexanecarboxamide], 0.125 µg/mL (≈ 0.247 µM).
Still for that read-out and setting: the result for `CNC(=O)c1cc(=O)n(CCN2CCC(NCc3ccc(C(F)(F)F)c(F)c3)CC2)c2cc(OC)ccc12` [Example 182, 1-(2-(4-((3-fluoro-4-(trifluoromethyl)benzyl)amino)piperidin-1-yl)ethyl)-7-methoxy-N-methyl-2-oxo-1,2-dihydroquinoline-4-carboxamide] reads 0.0625 µg/mL (≈ 0.117 µM).
